Test results: patent US20030032614A1, “Method of treating respiratory distress using synthetic polynucleic acids” (priority 1995, published 2003)
Where two headings read alike, the source gives them in different places.

Assays:
cystic fibrosis = assay: Treatment of cystic fibrosis patients with DNA drops; type: in vivo, human; conditions: person, advanced cystic fibrosis, 0.0003 mg per sublingual drop, four times daily
respiratory congestion = assay: Treatment of patients with respiratory congestion (emphysema, bronchitis, upper respiratory illness, sinusitis); type: in vivo, human; conditions: middle-aged person, chronic sinusitis, one sublingual drop (0.0003 mg) four times daily
Procedure: A patient who suffered from emphysema and bronchitis, as diagnosed by their physician, was placed on a dose of 1 drop per day (0.0006 mg/drop) of DNA sublingually.
A person diagnosed with chronic upper respiratory illness was treated with methods according to the invention. Previous antibiotic therapy was unsuccessful in treating their condition. […] They have remained symptom free.
A nurse presented with a severe upper respiratory infection and unproductive respiratory congestion. […] Expectoration was improved and the patient's illness resolved after 4.5 days and no congestion recurred.
A person presented with chronic sinusitis. Four drops of DNA per day were administered.
A person presented with unresolved respiratory congestion. […] The patient was then prescribed four drops of DNA (0.0006 mg/drop) per day.
A person with unproductive upper respiratory congestion was placed on 4 drops of DNA (0.0006 mg/drop) per day. […] In this case, therapy was supplemented with an over-the-counter expectorant.
A person with acute and chronic respiratory disease due to exposure to toxic corrosive materials was treated with methods according to the invention. Prior to such treatment, symptoms, including chronic rhinorrhea, chest congestion and chronic respiratory infections were treated with numerous courses of antibiotics without success. […]

heaves (equine COPD) = type: in vivo, horse
Procedure: According to this example, a quarter horse mare, at least 20 years of age, suffering from symptoms of heaves (equine COPD) for over ten years was treated subcutaneously twice daily with synthetic DNA. Each dose contained 0.0003 mg of poly(dA):poly(dT) synthetic DNA (Sigma) diluted in phenolated saline. […] Specifically, the horse was no longer coughing, nostrils were not flaring, and breathing was less labored. After one week of administering two doses per day, administration was reduced to once per day for two weeks, then given only on an “as needed” basis.
According to this example, a 15 year old gelding (male horse) suffering from heaves (equine COPD) for over two years was treated with synthetic DNA as described in example XXXIX.

Substance | therapeutic activity after change to synthetic DNA (cystic fibrosis) | overall response (respiratory congestion) | time to improvement in condition (respiratory congestion) | improvement (heaves (equine COPD); 15 year old gelding, treated as in example XXXIX) | adverse effects (heaves (equine COPD); in vivo) | condition of the horse (heaves (equine COPD); quarter horse mare, 0.0003 mg subcutaneously twice daily, thirty-six hours after treatment began) | condition of the horse (heaves (equine COPD); 15 year old gelding) | condition of the horse (heaves (equine COPD); quarter horse mare, identical treatment)
poly(dA):poly(dT) | no decrease in therapeutic activity | improved overall response, including the absence of headaches | ≤ 48 h | Improvement was noted within the first three days | no adverse effects noted | significantly improved |  | 
poly(dG):poly(dC) | same results |  |  |  |  |  | significant improvement | significant improvement
